Experimental findings from patent publication US11815508B2, “Dynamic BH3 profiling” (Dana-Farber Cancer Institute, Inc., priority 2012, dated 2023) are described below.

Holding throughout (assay type): cell-based, human
The subject of experiment [1] is K562. As to the kind of experiment: Dynamic BH3 profiling, K562 cells. The note with it: for change in depolarization caused by the BIM BH3 peptide following drug treatment: drug exposure 16 hours. Here is the method:
(§1) The change in depolarization caused by the BIM BH3 peptide following drug treatment is shown. […] Imatinib is a positive control.
(§2) In various methods, sensitivity of a cell to an agent is determined. The methods include contacting a test cell with a test agent. Cell sensitivity to the test agent is determined by contacting the test cell or test cellular component (e.g., mitochondria) exposed to the test agent with standardized concentration of a panel of BH3 domain peptide from the pro-apoptotic BCL-2 family.
(§3) The cell or cellular component is a cancer cell or a cell that is suspected of being cancerous. The cell is permeabilized to permit the BH3 peptides access to the mitochondria. Cells are permeabilized by methods known in the art. For example, the cell are permeabilized by contacting the cell with digitonin, or other art-recognized detergents and cell-permeabilization agents.
(§4) After the cells are permeabilized the cells are treated with the BH3 peptides or test agents. After the cell is treated, mitochondrial outer membrane permeabilization is measured. Outer membrane permeabilization is measured by a number of methods. For example outer membrane permeabilization is measured by loss of mitochondrial membrane potential. Loss of mitochondrial membrane potential is measured for example by treating the cells with a potentiometric or radiometric dye.

For experiment [2], the system named is K562. In words: Cell death by Annexin V/PI, K562 cells. The following applies: drug exposure 72 hours.
Experiment [3] relates to Ku812. As to the kind of experiment: Dynamic BH3 profiling, Ku812 cells. Here is the method:
as §1, §2, §3, §4

Experiment [4] has as its system Ku812. In words: Cell death, Ku812 cells.
The test system of the next experiment is SuDHL4 cell line. As to the kind of experiment: miBH3 profile of the SuDHL4 cell line. The following applies: response to BH3 peptides. Here is the method:
FIGS. 14A-14B are a series of bar graphs showing the correlation of miBH3 profiles with known profiles.
Dynamic BH3 profiling can be accomplished at the single cell level by immobilizing cells on a solid surface. Optionally the solid surface is polyamine or poly-lysine coated. Immobilized cells are permeabilized as described above. The cells are then contacted with BH3 peptides and/or test agents. After the cells have been treated for a predetermined period of time such as 45-90 minutes, the cells are fixed and permeabilized by methods known in the art. For example the cells are fixed with formaldehyde and further permeabilized with methanol or triton x-100. Outer membrane permeabilization is determined intracellular staining for molecules from the mitochondrial inter-membrane space and a mitrochondrial marker. Examples of molecules that can be measured include cytochrome c and SMAC/Diablo, Omi, adenylate kinase-2 or apoptotic-inducing factor (AIF). Mitochondrial markers include MnSOD. Stained cells can be counterstained with nuclear stains such as DAPI. Optionally other intracellular and extracellular markers can be measured. Analysis of the cells can be manually accomplished using a microscope or automated for example by using software such as Cellprofiler to locate nuclei.
MicroBH3 (miBH3) is a BH3 profiling method where the measurement of the mitochondrial effect of BH3 peptides have on individual cells by microscopy. To accomplish this, cells are immobilized on polyamine or poly-lysine coated surfaces and treated with low concentrations of digitonin in a mitochondrial buffer to permeabilize the plasma membrane and grant access to the mitochondria without cell disruption. […] Fixed cells by this method can be readily stopped at the fixation step and can be analyzed weeks after acquisition as well as readily re-analyzed if needed.

The subject of another experiment is PC9. In words: Dynamic BH3 profiling, NSCLC cell line PC9. The following applies: gefitinib 1 μM, WZ4002 100 nM, 16 hours; BH3 peptide Bim at low concentrations. Here is the method: (§5) In various methods, sensitivity of a cell to an agent is determined. The methods include contacting a test cell with a test agent. Cell sensitivity to the test agent is determined by contacting the test cell or test cellular component (e.g., mitochondria) exposed to the test agent with standardized concentration of a panel of BH3 domain peptide from the pro-apoptotic BCL-2 family. […] The cell or cellular component is a cancer cell or a cell that is suspected of being cancerous. The cell is permeabilized to permit the BH3 peptides access to the mitochondria. Cells are permeabilized by methods known in the art. For example, the cell are permeabilized by contacting the cell with digitonin, or other art-recognized detergents and cell-permeabilization agents. After the cells are permeabilized the cells are treated with the BH3 peptides or test agents. After the cell is treated, mitochondrial outer membrane permeabilization is measured. Outer membrane permeabilization is measured by a number of methods. For example outer membrane permeabilization is measured by loss of mitochondrial membrane potential. Loss of mitochondrial membrane potential is measured for example by treating the cells with a potentiometric or radiometric dye. Three different cell lines were used: PC9, PC9 gefitinib resistant (PC9GR, including the mutation T790M) and PC9GR resistant to WZ4002 (PC9WZR). […]

In the next experiment the test system is PC9GR. As to the kind of experiment: Dynamic BH3 profiling, PC9 gefitinib resistant. The following applies: gefitinib 1 μM, WZ4002 100 nM, 16 hours; BH3 peptide Bim at low concentrations. As to the method:
as §5

The subject of the next experiment is PC9WZR. In words: Dynamic BH3 profiling, PC9GR resistant to WZ4002. The following applies: gefitinib 1 μM, WZ4002 100 nM, 16 hours; BH3 peptide Bim at low concentrations. Here is the method:
as §5

Take `Cn1c(=O)n(-c2ccc(C(C)(C)C#N)cc2)c2c3cc(-c4cnc5ccccc5c4)ccc3ncc21` [BEZ235]: in the experiment with K562 [1], the “change in depolarization caused by the BIM BH3 peptide following drug treatment” value (“change in depolarization caused” for short) is on record as “significant changes”. In addition, in the experiment with K562 [2], the “cell death response (Annexin V/PI)” value is “unexpected killing”.

Regarding `Cc1sc2c(c1C)C(c1ccc(Cl)cc1)=N[C@@H](CC(=O)OC(C)(C)C)c1nnc(C)n1-2` [JQ1], in the experiment on Ku812 [3] (epigenetic modifying agents, imatinib positive control), the “priming by dynamic BH3 profiling” value was “increases priming”. For the same molecule, the cell death result with Ku812 [4] is recorded as “induce cell death”.

As for `COc1cc(N2CCC(N3CCN(C)CC3)CC2)ccc1Nc1ncc(Cl)c(Nc2ccccc2S(=O)(=O)C(C)C)n1` [TAE-684], the “change in depolarization caused” value with K562 [1] is recorded as “significant changes”. The “cell death response (Annexin V/PI)” value with K562 [2] is “unexpected killing”.

EQWAREIGAQLRRMADDLNA [PUMA]: the “release of cytochrome c and loss of correlation between cytochrome c and MnSOD channels” value in the experiment on SuDHL4 cell line is “Release of cytochrome c and loss of correlation”.

Turning to `C=CC(=O)Nc1cccc(Oc2nc(Nc3ccc(N4CCN(C)CC4)cc3OC)ncc2Cl)c1` [WZ4002], the “sensitivity (change in priming) by dynamic BH3 profiling” value in the experiment with PC9 is listed as “sensitive”; in the experiment with PC9GR, “sensitive”; in the experiment on PC9WZR, “insensitive”.

On to HQAEVQIARKLQLIADQFHR [BMF], for which the “release of cytochrome c and loss of correlation between cytochrome c and MnSOD channels” value in the experiment with SuDHL4 cell line is “Release of cytochrome c and loss of correlation”.

`Cc1ccc(NC(=O)c2ccc(CN3CCN(C)CC3)cc2)cc1Nc1nccc(-c2cccnc2)n1` [imatinib]: the “change in depolarization caused” value in the experiment with K562 [1] is reported as “significant changes”. In addition, the “priming, several BH3 peptides” value with K562 [1] (imatinib 1 μM, 16 h and 8 h) is listed as “increase in priming”; in the experiment on Ku812 [3] (imatinib 1 μM, 16 h and 8 h), “increase in priming”. Besides, the cell death entry in the experiment on Ku812 [4] is given as “induce cell death”.

Take LWAAQRYGRELRRMSDEFEGSFKGL [BAD]: the “release of cytochrome c and loss of correlation between cytochrome c and MnSOD channels” value in the experiment with SuDHL4 cell line was “Release of cytochrome c and loss of correlation”.

As to `COc1cc2ncnc(Nc3ccc(F)c(Cl)c3)c2cc1OCCCN1CCOCC1` [gefitinib], the “sensitivity (change in priming) by dynamic BH3 profiling” value in the experiment with PC9 is “sensitive”; in the experiment with PC9GR it was “insensitive”; in the experiment with PC9WZR, “insensitive”.
